Data reported in PubChem BioAssay (NCI).
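GI50: concentration for 50% inhibition of growth. At the TGI there is no net growth.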

Legend:
Assay in all cases: NCI-60 cell line screen, 384-well format
NCI/ADR-RES ovarian = system: NCI/ADR-RES ovarian
SNB-19 CNS = system: SNB-19 CNS
CAKI-1 renal = system: CAKI-1 renal
NCI-H23 lung = system: NCI-H23 lung
SF-539 CNS = system: SF-539 CNS
MDA-MB-231 breast = system: MDA-MB-231 breast
MALME-3M melanoma = system: MALME-3M melanoma
M14 melanoma = system: M14 melanoma
OVCAR-3 ovarian = system: OVCAR-3 ovarian
SF-295 CNS = system: SF-295 CNS
OVCAR-4 ovarian = system: OVCAR-4 ovarian
HCC-2998 colon = system: HCC-2998 colon
SW-620 colon = system: SW-620 colon
A549 NSCLC = system: A549 NSCLC
DU-145 prostate = system: DU-145 prostate
U251 glioblastoma = system: U251 glioblastoma
COLO 205 colon = system: COLO 205 colon
UACC-62 melanoma = system: UACC-62 melanoma
NCI-H522 lung = system: NCI-H522 lung
NCI-H226 lung = system: NCI-H226 lung
OVCAR-5 ovarian = system: OVCAR-5 ovarian
ACHN renal = system: ACHN renal
MDA-MB-435 melanoma = system: MDA-MB-435 melanoma
SF-268 CNS = system: SF-268 CNS
OVCAR-8 ovarian = system: OVCAR-8 ovarian
KM12 colon = system: KM12 colon
NCI-H322M lung = system: NCI-H322M lung
SK-OV-3 ovarian = system: SK-OV-3 ovarian
CCRF-CEM leukemia = system: CCRF-CEM leukemia
HOP-62 NSCLC = system: HOP-62 NSCLC
HOP-92 NSCLC = system: HOP-92 NSCLC
SN12C renal = system: SN12C renal
786-0 renal = system: 786-0 renal
NCI-H460 NSCLC = system: NCI-H460 NSCLC
UACC-257 melanoma = system: UACC-257 melanoma
SK-MEL-28 melanoma = system: SK-MEL-28 melanoma
SR leukemia = system: SR leukemia
MCF7 breast = system: MCF7 breast
HCT-116 colon = system: HCT-116 colon
TK-10 renal = system: TK-10 renal
HCT-15 colon = system: HCT-15 colon
RPMI-8226 leukemia = system: RPMI-8226 leukemia
PC-3 prostate = system: PC-3 prostate
T-47D breast = system: T-47D breast
K-562 leukemia = system: K-562 leukemia
RXF 393 renal = system: RXF 393 renal
UO-31 renal = system: UO-31 renal
MDA-MB-468 breast = system: MDA-MB-468 breast
HL-60(TB) leukemia = system: HL-60(TB) leukemia
A498 renal = system: A498 renal
SK-MEL-5 melanoma = system: SK-MEL-5 melanoma
LOX IMVI melanoma = system: LOX IMVI melanoma
MOLT-4 leukemia = system: MOLT-4 leukemia
BT-549 breast = system: BT-549 breast
HT29 colon = system: HT29 colon
SK-MEL-2 melanoma = system: SK-MEL-2 melanoma
IGROV1 ovarian = system: IGROV1 ovarian

C[C@H](CCOc1cccc(CC(=O)O)c1)N(Cc1cccc(C(F)(F)F)c1Cl)CC(c1ccccc1)c1ccccc1
GI50 (NCI/ADR-RES ovarian): 3.54 µM
TGI (NCI/ADR-RES ovarian): 12.5 µM
GI50 (SNB-19 CNS): 4.66 µM
TGI (SNB-19 CNS): 14 µM
GI50 (CAKI-1 renal): 6.37 µM
TGI (CAKI-1 renal): 18.5 µM
GI50 (NCI-H23 lung): 2.28 µM
TGI (NCI-H23 lung): 5.31 µM
GI50 (SF-539 CNS): 3.92 µM
TGI (SF-539 CNS): 14.2 µM
GI50 (MDA-MB-231 breast): 10.2 µM
TGI (MDA-MB-231 breast): 21.9 µM
GI50 (MALME-3M melanoma): 15 µM
TGI (MALME-3M melanoma): 28.3 µM
GI50 (M14 melanoma): 5.84 µM
TGI (M14 melanoma): 18.2 µM
GI50 (OVCAR-3 ovarian): 2.79 µM
TGI (OVCAR-3 ovarian): 7.28 µM
GI50 (SF-295 CNS): 2.64 µM
TGI (SF-295 CNS): 7.41 µM
GI50 (OVCAR-4 ovarian): 5.04 µM
TGI (OVCAR-4 ovarian): 18.2 µM
GI50 (HCC-2998 colon): 2.58 µM
TGI (HCC-2998 colon): 7.25 µM
GI50 (SW-620 colon): 4.66 µM
TGI (SW-620 colon): 15.7 µM
GI50 (A549 NSCLC): 3.46 µM
TGI (A549 NSCLC): 12 µM
GI50 (DU-145 prostate): 5.06 µM
TGI (DU-145 prostate): 16.5 µM
GI50 (U251 glioblastoma): 2.69 µM
TGI (U251 glioblastoma): 7.64 µM
GI50 (COLO 205 colon): 8.19 µM
TGI (COLO 205 colon): 20.5 µM
GI50 (UACC-62 melanoma): 9.52 µM
TGI (UACC-62 melanoma): 21.4 µM
GI50 (NCI-H522 lung): 2.55 µM
TGI (NCI-H522 lung): 9.37 µM
GI50 (NCI-H226 lung): 4.17 µM
TGI (NCI-H226 lung): 15.7 µM
GI50 (OVCAR-5 ovarian): 11.2 µM
TGI (OVCAR-5 ovarian): 23.3 µM
GI50 (ACHN renal): 5 µM
TGI (ACHN renal): 16.1 µM
GI50 (MDA-MB-435 melanoma): 10.9 µM
TGI (MDA-MB-435 melanoma): 23 µM
GI50 (SF-268 CNS): 3.04 µM
TGI (SF-268 CNS): 11 µM
GI50 (OVCAR-8 ovarian): 4.56 µM
TGI (OVCAR-8 ovarian): 15.4 µM
GI50 (KM12 colon): 3.76 µM
TGI (KM12 colon): 12.5 µM
GI50 (NCI-H322M lung): 4.7 µM
TGI (NCI-H322M lung): 17.3 µM
GI50 (SK-OV-3 ovarian): 9.13 µM
TGI (SK-OV-3 ovarian): 21.2 µM
GI50 (CCRF-CEM leukemia): 1.72 µM
TGI (CCRF-CEM leukemia): 4.13 µM
GI50 (HOP-62 NSCLC): 3.86 µM
TGI (HOP-62 NSCLC): 12.9 µM
GI50 (HOP-92 NSCLC): 2.97 µM
TGI (HOP-92 NSCLC): 8.88 µM
GI50 (SN12C renal): 5.1 µM
TGI (SN12C renal): 16.2 µM
GI50 ([…]-0 renal): 4.3 µM
TGI (786-0 renal): 15.4 µM
GI50 (NCI-H460 NSCLC): 3.5 µM
TGI (NCI-H460 NSCLC): 11.3 µM
GI50 (UACC-257 melanoma): 3.35 µM
TGI (UACC-257 melanoma): 13 µM
GI50 (SK-MEL-28 melanoma): 15.8 µM
TGI (SK-MEL-28 melanoma): 29.3 µM
GI50 (SR leukemia): 1.73 µM
TGI (SR leukemia): 3.16 µM
GI50 (MCF7 breast): 3.9 µM
TGI (MCF7 breast): 14 µM
GI50 (HCT-116 colon): 3 µM
TGI (HCT-116 colon): 11.2 µM
GI50 (TK-10 renal): 6.54 µM
TGI (TK-10 renal): 18.8 µM
GI50 (HCT-15 colon): 3.83 µM
TGI (HCT-15 colon): 13 µM
GI50 (RPMI-8226 leukemia): 1.5 µM
TGI (RPMI-8226 leukemia): 2.93 µM
GI50 (PC-3 prostate): 4.33 µM
TGI (PC-3 prostate): 13.1 µM
GI50 (T-47D breast): 1.84 µM
TGI (T-47D breast): 10 µM
GI50 (K-562 leukemia): 3.55 µM
TGI (K-562 leukemia): 13.4 µM
GI50 (RXF 393 renal): 2.1 µM
TGI (RXF 393 renal): 5.24 µM
GI50 (UO-31 renal): 5.07 µM
TGI (UO-31 renal): 16.7 µM
GI50 (MDA-MB-468 breast): 3.06 µM
TGI (MDA-MB-468 breast): 7.76 µM
GI50 (HL-60(TB) leukemia): 2.26 µM
TGI (HL-60(TB) leukemia): 4.22 µM
GI50 (A498 renal): 4.51 µM
TGI (A498 renal): 15.6 µM
GI50 (SK-MEL-5 melanoma): 3.29 µM
TGI (SK-MEL-5 melanoma): 11.1 µM
GI50 (LOX IMVI melanoma): 4.34 µM
TGI (LOX IMVI melanoma): 17.5 µM
GI50 (MOLT-4 leukemia): 1.61 µM
TGI (MOLT-4 leukemia): 3.15 µM
GI50 (BT-549 breast): 3.27 µM
TGI (BT-549 breast): 12.7 µM
GI50 (HT29 colon): 4.23 µM
TGI (HT29 colon): 16.2 µM
GI50 (SK-MEL-2 melanoma): 14 µM
TGI (SK-MEL-2 melanoma): 27 µM
GI50 (IGROV1 ovarian): 5.92 µM
TGI (IGROV1 ovarian): 18.5 µM
